Several values for one entry are separate records, joined by “and”; a condition that tells them apart may be missing. Identical values can stand only once.
How the values were obtained:
P. aeruginosa PA01 (wt) = test: Antibiotic susceptibility testing (broth micro-dilution MIC), strain PA01; format: cell-based, Pseudomonas aeruginosa
[1] = system: P. aeruginosa PT629 (Mex AB overproducer); test: Antibiotic susceptibility testing (broth micro-dilution MIC), strain PT629; format: cell-based, Pseudomonas aeruginosa
[2] = system: P. aeruginosa PA0-7H (Mex EF overproducer); test: Antibiotic susceptibility testing (broth micro-dilution MIC), strain PA0-7H; format: cell-based, Pseudomonas aeruginosa
[3] = system: P. aeruginosa CMZ091 (Mex XY overproducer); test: Antibiotic susceptibility testing (broth micro-dilution MIC), strain CMZ091; format: cell-based, Pseudomonas aeruginosa
[4] = system: twenty clinical isolates of P. aeruginosa; test: Combined antibiotic / polyamino-isoprenic derivative on MH agar plates, clinical isolates; format: cell-based, Pseudomonas aeruginosa
Description: MH agar plates were prepared, containing 2 mg/L doxycycline and 2 mg/L doxycycline in combination with compounds at a concentration of 10 μM. Bacteria, 5 μL of a suspension of each clinical isolate adjusted to 5 x 10^5 colony-forming units per ml were spotted on each plate and growth was monitored after a 18 h period of incubation at 37°C.
PA01 is a well-studied reference strain of P. aeruginosa, however to extend our study we considered strains recently isolated from hospitalized patients. Thus, we decided to test this combination of doxycycline (2mg/L) with polyamino-isoprenic compounds (10 μM) on twenty clinical isolates recently isolated from the HIA-Laveran (see M&M section and S1 Table).

P. aeruginosa PA01 = test: Comparison of efficiency between compounds and PAßN (compound gradient with 2 mg/L doxycycline); format: cell-based, Pseudomonas aeruginosa; details: for concentration needed to inhibit growth in the presence of doxycycline: PA01, doxycycline 2 mg/L, 18 h
Description: Serial dilutions of each compound (from 270 μM to 0.95 μM for PAßN and from 135 μM to 0.06 μM for 3) were prepared in microplates. Doxycycline (2 mg/L) was then added to each well before inoculation of bacteria (5x10^5 cfu/mL). Optical density (600 nm) was measured after 18 hours at 37°C. Only the relevant part of the graphs are shown. Experiments were performed in triplicate.
First, we performed a checkerboard assay to analyze the synergy between doxycycline and the polyamino-isoprenic compound and between doxycycline and PAβN. For both, compound 3 and PAβN we observed a synergistic inhibition of growth when combined with doxycycline with a FIC Index of 0.09 (S2 Table). […] PAßN is generally used at a concentration greater than 10 μM to inhibit the resistance of P. aeruginosa with respect to various antibiotics, and, to our knowledge, no data have been reported in the literature on its use in combination with doxycycline. The percentage of growth inhibition was monitored as a function of compound concentration, and the results are presented in Fig 3.

CHO-K1 cells = test: cells; format: cell-based, Chinese Hamster; details: Cricetulus griseus, CHO-K1; WST1, 24 h; mean +/- SD, 2 independent experiments
Description: CHO-K1 cells (ATCC-LGC Standards Sarl (Molsheim, France) and human fibroblasts (Clinisciences, Paris, France) were maintained in McCoy’s 5A and DMEM media, respectively, supplemented with 10% bovine calf serum, 2 mM glutamine, and 100 U/mL/10 μg/mL penicillin/streptomycin. They were incubated at 37°C in a humidified atmosphere containing 5% CO2. The cell lines were seeded in 96-well plates and incubated overnight. The cytotoxic effects of compounds were assessed by the colorimetric WST-1 cell proliferation assay as previously described. Briefly, a range of compound concentrations from 30 μM to 1200 μM was added to triplicate cultures, and cells were incubated at 37°C for 24 h. At the end of the incubation period, cultures were washed three times with phosphate buffer saline (PBS) and incubated in fresh culture medium containing 10% WST-1 for an additional 30 min. Cell viability was evaluated by measuring the WST-1 absorbance at 450 nm in a microplate spectrophotometer MRX1 II (Dynex technologies, Chantilly, VA, USA). The Inhibitory Concentration 50% (IC50) was chosen to evaluate the cytotoxicity of compounds. IC50 was defined as the concentration of a compound that induced a 50% decrease in viable cells. Doxorubicin was used as a positive control.

[5] = system: outer membrane of P. aeruginosa PA01; test: Outer membrane permeation assay (nitrocefin hydrolysis)
Description: An overnight culture of PA01 was diluted 100-fold into 10 ml MHII broth containing 0.01 μg/ml of imipenem to induce a higher level of β-lactamases. […] Absorbance at 490 nm was monitored by spectrophotometry using an Infinite M200 microplate reader (Tecan) over 60 min. Experiments were performed in triplicate.

[6] = Pseudomonas aeruginosa, read-out: Minimal Inhibitory Concentration
[7] = chloramphenicol 4 mg/L + compound 10 μM

Question: How did the “MIC of Amikacin in the presence of the compound” value (from here on “MIC of Amikacin”) (P. aeruginosa PA01 (wt); PA01, compound 10µM) turn out when `CC(C)=CCCC(C)=CCCC(C)=CCNCCCNCCCCNCCCN` [Compound 3] was run?
Answer: 64 µg/mL

Question: What about the “MIC of Ceftazidime in the presence of the compound” value (shortened to “MIC of Ceftazidime”) (P. aeruginosa PA01 (wt); PA01, compound 10µM) of the same compound?
Answer: 2 µg/mL

Question: What about the “MIC of Ciprofloxacin in the presence of the compound” value (P. aeruginosa PA01 (wt); PA01, compound 10µM) of the same compound?
Answer: 0.125 µg/mL

Question: And the “MIC of Ticarcillin in the presence of the compound” value (shortened to “MIC of Ticarcillin”) (P. aeruginosa PA01 (wt); PA01, compound 10µM)?
Answer: 16 µg/mL

Question: What about the MIC (P. aeruginosa PA01 (wt); [6]) of the same compound?
Answer: 25 µg/mL and 62.5 µM

Question: And the “MIC of Amikacin” value ([1]; PT629, compound 10µM)?
Answer: 64 µg/mL

Question: What about the “MIC of Ceftazidime” value ([1]; PT629, compound 10µM) of the same compound?
Answer: 8 µg/mL

Question: And the “MIC of Ciprofloxacin in the presence of the compound” value ([1]; PT629, compound 10µM)?
Answer: 0.5 µg/mL

Question: And the “MIC of Ticarcillin” value ([1]; PT629, compound 10µM)?
Answer: 64 µg/mL

Question: What about the MIC [1, 6] of the same compound?
Answer: 25 µg/mL and 62.5 µM

Question: What about the “decrease of MIC of ciprofloxacin” value ([2]; PA0-7H (overproduces MexEF), compound 10 µM) of the same compound?
Answer: 4 times

Question: And the “MIC of Amikacin” value ([2]; PA0-7H, compound 10µM)?
Answer: 64 µg/mL

Question: What about the “MIC of Ceftazidime” value ([2]; PA0-7H, compound 10µM) of the same compound?
Answer: 1 µg/mL

Question: And the “MIC of Ciprofloxacin in the presence of the compound” value ([2]; PA0-7H, compound 10µM)?
Answer: 1 µg/mL

Question: What about the “MIC of Ticarcillin” value ([2]; PA0-7H, compound 10µM) of the same compound?
Answer: 4 µg/mL

Question: And the MIC [2, 6]?
Answer: 25 µg/mL and 62.5 µM

Question: And the “MIC of Amikacin” value ([3]; CMZ091, compound 10µM)?
Answer: > 64 µg/mL

Question: What about the “MIC of Ceftazidime” value ([3]; CMZ091, compound 10µM) of the same compound?
Answer: 2 µg/mL

Question: What about the “MIC of Ciprofloxacin in the presence of the compound” value ([3]; CMZ091, compound 10µM) of the same compound?
Answer: 0.25 µg/mL

Question: And the “MIC of Ticarcillin” value ([3]; CMZ091, compound 10µM)?
Answer: 8 µg/mL

Question: And the MIC [3, 6]?
Answer: 25 µg/mL and 62.5 µM

Question: And the clinical isolates resistant [4, 7]?
Answer: 25%

Question: And the “clinical isolates resistant (number of 20)” value [4, 7]?
Answer: 5

Question: What about the “clinical isolates whose growth was impaired” value [4, 7] of the same compound?
Answer: 75%

Question: What about the “clinical isolates whose growth was impaired (number of 20)” value ([4]; chloramphenicol 4 mg/L + compound 10 μM, data not shown) of the same compound?
Answer: 15

Question: And the “MIC ratio (doxycycline)” value ([4]; clinical isolates, with compound)?
Answer: 32

Question: And the “isolates with doxycycline susceptibility restored” value ([4]; doxycycline 2 mg/L + compound 10 μM, 20 clinical isolates)?
Answer: total susceptibility of all the considered isolates

Question: What about the “concentration needed to inhibit growth in the presence of doxycycline” value (P. aeruginosa PA01) of the same compound?
Answer: ~1.22 mg/L

Question: And the “concentration needed to inhibit growth in the presence of doxycycline” value (P. aeruginosa PA01; graphically determined on Fig 3)?
Answer: approximately 3 μM

Question: And the “potency in comparison with PAßN” value (P. aeruginosa PA01; adjuvant of doxycycline)?
Answer: approximately 10 times

Question: What about the IC50 (CHO-K1 cells) of the same compound?
Answer: 320 ± 41.2 µM

Question: And the “outer membrane permeation efficacy” value ([5]; compound at 15.6μM, p value ≤ 0.05)?
Answer: significantly identical to 31.25μM of PMBN

Question: And the “outer membrane permeation activity” value ([5]; compound at 31.25μM, relative to 250 μM polymyxin-B)?
Answer: 10%
